Assay results published in paper PMC10867575, “Functional validation of novel levamisole resistance marker S168T in Haemonchus contortus” (International Journal for Parasitology: Drugs and Drug …, 2024).
Where two headings read alike, the source gives them in different places.

System: T1, Hco-L-AChR-1.1 (UNC-29.1/UNC-38/UNC-63/ACR-8)
T1 construct: cRNAs co-injected in Xenopus laevis oocytes with H. contortus ancillary ric-3.1, unc-50, unc-74; wild-type clones from earlier studies; S168T acr-8 cloned from isolate MHco18 (UGA2004), vector pTB207
Assay: two-electrode voltage clamp, Xenopus oocytes
Type: cell-based, Haemonchus contortus
Settings: agonist, 100 mM NaCl, 2.5 mM KCl, 1 mM CaCl2, 5 mM HEPES, pH 7.3, currents normalised to 100 μM ACh
Text: two-electrode voltage clamp, Xenopus oocytes on Hco-L-AChR-1.1 (UNC-29.1/UNC-38/UNC-63/ACR-8)

Structure (SMILES) | EC50 (read-out: LEV EC50) [µM] | EC50 (read-out: ACh EC50) [µM]
c1ccc([C@H]2CN3CCSC3=N2)cc1 [LEV, levamisole] | 3.2 ± 1.1 | 
CC(=O)OCC[N+](C)(C)C [ACh, acetylcholine] |  | 4.2 ± 1.1
